Laboratory results taken from ChEMBL document CHEMBL1177794, “Broad spectrum alkynyl inhibitors of T315I Bcr-Abl” (Bioorg Med Chem Lett, 2010).

Experiments:
[1] = target: Ephrin type-A receptor 8 (Homo sapiens) (UniProt P29322); assay: Inhibition of EPHA8 at 10 uM; settings: values are per cent of control
[2] = target: Bone morphogenetic protein receptor type-1A (Homo sapiens) (UniProt P36894); assay: Inhibition of BMPR1A at 10 uM; settings: values are per cent of control
[3] = target: Epidermal growth factor receptor (Homo sapiens) (UniProt P04626+P00533+Q15303+P21860); assay: Inhibition of EGFR E746-A750del mutant at 10 uM; values are per cent of control
[4] = target: Mitogen-activated protein kinase kinase kinase 15 (Homo sapiens) (UniProt Q6ZN16); assay: Inhibition of MAP3K15 at 10 uM; settings: values are per cent of control
[5] = target: Activin receptor type-2A (Homo sapiens) (UniProt P27037); assay: Inhibition of ACVR2A at 10 uM; settings: values are per cent of control
[6] = target: 5'-AMP-activated protein kinase catalytic subunit alpha-2 (Homo sapiens) (UniProt P54646); assay: Inhibition of AMPK-alpha2 at 10 uM; settings: values are per cent of control
[7] = target: Tyrosine-protein kinase Tec (Homo sapiens) (UniProt P42680); assay: Inhibition of TEC at 10 uM; values are per cent of control
[8] = test system: Proto-oncogene tyrosine-protein kinase receptor Ret (Homo sapiens), P07949 [M918T]; assay: Inhibition of RET M918T mutant at 10 uM; values are per cent of control
[9] = target: STE20-like serine/threonine-protein kinase (Homo sapiens) (UniProt Q9H2G2); assay: Inhibition of SLK at 10 uM
[10] = target: Cyclin-dependent kinase 16 (Homo sapiens) (UniProt Q00536); assay: Inhibition of PCTK1 at 10 uM; settings: values are per cent of control
[11] = target: Tyrosine-protein kinase ZAP-70 (Homo sapiens) (UniProt P43403); assay: Inhibition of ZAP70 at 10 uM; settings: values are per cent of control
[12] = target: Phosphatidylinositol 4-kinase beta (Homo sapiens) (UniProt Q9UBF8); assay: Inhibition of PIK4CB at 10 uM
[13] = target: Cyclin-dependent kinase 15 (Homo sapiens) (UniProt Q96Q40); assay: Inhibition of PFTAIRE2 at 10 uM; settings: values are per cent of control
[14] = target: Cyclin-dependent kinase 2 homolog (Plasmodium falciparum (isolate K1 / Thailand)) (UniProt Q07785); assay: Inhibition of Plasmodium falciparum PFPK5 at 10 uM
[15] = target: TGF-beta receptor type-2 (Homo sapiens) (UniProt P37173); assay: Inhibition of TGFBR2 at 10 uM
[16] = target: Serine/threonine-protein kinase N2 (Homo sapiens) (UniProt Q16513); assay: Inhibition of PKN2 at 10 uM
[17] = target: Cyclin-dependent kinase-like 1 (Homo sapiens) (UniProt Q00532); assay: Inhibition of CDKL1 at 10 uM; settings: values are per cent of control
[18] = target: Cyclin-dependent kinase-like 2 (Homo sapiens) (UniProt Q92772); assay: Inhibition of CDKL2 at 10 uM; settings: values are per cent of control
[19] = target: Macrophage-stimulating protein receptor (Homo sapiens) (UniProt Q04912); assay: Inhibition of MST1R at 10 uM
[20] = test system: Mast/stem cell growth factor receptor Kit (Homo sapiens), P10721 [V559D,T670I]; assay: Inhibition of KIT V559D, T670I mutant at 10 uM; settings: values are per cent of control
[21] = target: Membrane-associated tyrosine- and threonine-specific cdc2-inhibitory kinase (Homo sapiens) (UniProt Q99640); assay: Inhibition of PKMYT1 at 10 uM
[22] = target: Serine/threonine-protein kinase 10 (Homo sapiens) (UniProt O94804); assay: Inhibition of LOK at 10 uM; values are per cent of control
[23] = target: Mitogen-activated protein kinase 12 (Homo sapiens) (UniProt P53778); assay: Inhibition of p38-gamma at 10 uM; values are per cent of control
[24] = test system: Mast/stem cell growth factor receptor Kit (Homo sapiens), P10721 [D816V]; assay: Inhibition of KIT D816V mutant at 10 uM; settings: values are per cent of control
[25] = target: Rho-associated protein kinase 1 (Homo sapiens) (UniProt Q13464); assay: Inhibition of ROCK1 at 10 uM
[26] = test system: Tyrosine-protein kinase ABL1 (Homo sapiens), P00519 [T315I]; assay: Inhibition of phosphorylated ABL1 T315I mutant at 10 uM; settings: values are per cent of control
[27] = target: Receptor-interacting serine/threonine-protein kinase 4 (Homo sapiens) (UniProt P57078); assay: Inhibition of RIPK4 at 10 uM
[28] = target: Serine/threonine-protein kinase 24 (Homo sapiens) (UniProt Q9Y6E0); assay: Inhibition of MST3 at 10 uM
[29] = target: Insulin receptor (Homo sapiens) (UniProt P06213); assay: Inhibition of INSR at 10 uM; settings: values are per cent of control
[30] = target: Mitogen-activated protein kinase 7 (Homo sapiens) (UniProt Q13164); assay: Inhibition of ERK5 at 10 uM; values are per cent of control
[31] = target: Casein kinase I isoform delta (Homo sapiens) (UniProt P48730); assay: Inhibition of CSNK1D at 10 uM; values are per cent of control
[32] = test system: Hepatocyte growth factor receptor (Homo sapiens), P08581 [M1250T]; assay: Inhibition of MET M1250T mutant at 10 uM
[33] = target: Serine/threonine-protein kinase MRCK beta (Homo sapiens) (UniProt Q9Y5S2); assay: Inhibition of MRCKB at 10 uM
[34] = target: Glycogen synthase kinase-3 beta (Homo sapiens) (UniProt P49841); assay: Inhibition of GSK3B at 10 uM; settings: values are per cent of control
[35] = target: Transient receptor potential cation channel subfamily M member 6 (Homo sapiens) (UniProt Q9BX84); assay: Inhibition of TRPM6 at 10 uM; settings: values are per cent of control
[36] = target: TRAF2 and NCK-interacting protein kinase (Homo sapiens) (UniProt Q9UKE5); assay: Inhibition of TNIK at 10 uM; settings: values are per cent of control
[37] = target: MAP kinase-interacting serine/threonine-protein kinase 2 (Homo sapiens) (UniProt Q9HBH9); assay: Inhibition of MKNK2 at 10 uM
[38] = Inhibition of FLT3 ITD mutant at 10 uM; settings: values are per cent of control
[39] = target: Leukocyte tyrosine kinase receptor (Homo sapiens) (UniProt P29376); assay: Inhibition of LTK at 10 uM; settings: values are per cent of control
[40] = test system: Phosphatidylinositol 4,5-bisphosphate 3-kinase catalytic subunit alpha isoform (Homo sapiens), P42336 [H1047L]; assay: Inhibition of PIK3CA H1047L mutant at 10 uM
[41] = target: Tyrosine-protein kinase Lck (Homo sapiens) (UniProt P06239); assay: Inhibition of LCK at 10 uM; values are per cent of control
[42] = target: MAP kinase-activated protein kinase 2 (Homo sapiens) (UniProt P49137); assay: Inhibition of MAPKAPK2 at 10 uM; settings: values are per cent of control
Chain of MAP kinase-activated protein kinase 2 (Homo sapiens) (P49137 whole entry, looked up): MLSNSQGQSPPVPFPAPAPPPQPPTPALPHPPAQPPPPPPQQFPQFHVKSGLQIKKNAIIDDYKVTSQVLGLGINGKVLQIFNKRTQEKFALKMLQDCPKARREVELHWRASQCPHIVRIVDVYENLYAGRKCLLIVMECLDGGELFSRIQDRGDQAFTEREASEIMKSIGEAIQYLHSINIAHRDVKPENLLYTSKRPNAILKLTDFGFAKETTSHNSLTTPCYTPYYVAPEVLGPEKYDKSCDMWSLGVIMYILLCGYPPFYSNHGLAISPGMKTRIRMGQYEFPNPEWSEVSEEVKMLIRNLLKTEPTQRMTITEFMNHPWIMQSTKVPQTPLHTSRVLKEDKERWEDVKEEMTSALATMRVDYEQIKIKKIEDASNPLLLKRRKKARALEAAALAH

Chain of Receptor-interacting serine/threonine-protein kinase 4 (Homo sapiens) (P57078 whole entry): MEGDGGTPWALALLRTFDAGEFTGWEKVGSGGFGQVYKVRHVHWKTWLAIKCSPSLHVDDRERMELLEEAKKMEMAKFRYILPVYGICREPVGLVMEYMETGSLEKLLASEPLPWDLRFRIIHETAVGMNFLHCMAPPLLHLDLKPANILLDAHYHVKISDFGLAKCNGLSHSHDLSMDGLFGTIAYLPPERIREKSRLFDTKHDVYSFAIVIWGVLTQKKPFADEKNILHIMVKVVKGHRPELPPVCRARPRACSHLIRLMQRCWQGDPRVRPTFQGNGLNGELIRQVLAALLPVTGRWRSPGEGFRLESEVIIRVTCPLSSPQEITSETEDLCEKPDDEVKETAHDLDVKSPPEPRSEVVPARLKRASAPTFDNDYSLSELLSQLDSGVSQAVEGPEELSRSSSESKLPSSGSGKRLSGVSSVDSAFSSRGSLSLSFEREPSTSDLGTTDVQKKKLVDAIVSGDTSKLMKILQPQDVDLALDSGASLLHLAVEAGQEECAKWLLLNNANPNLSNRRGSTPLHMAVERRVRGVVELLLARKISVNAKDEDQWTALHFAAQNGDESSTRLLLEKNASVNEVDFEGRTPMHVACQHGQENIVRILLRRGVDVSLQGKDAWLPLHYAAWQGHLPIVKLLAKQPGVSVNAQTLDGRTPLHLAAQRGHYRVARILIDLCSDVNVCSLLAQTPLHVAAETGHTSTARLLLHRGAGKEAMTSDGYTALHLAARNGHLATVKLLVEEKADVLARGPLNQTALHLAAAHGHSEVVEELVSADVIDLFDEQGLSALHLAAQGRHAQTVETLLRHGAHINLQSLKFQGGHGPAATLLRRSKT
Chain of Rho-associated protein kinase 1 (Homo sapiens) (Q13464 2-1354 limits assumed): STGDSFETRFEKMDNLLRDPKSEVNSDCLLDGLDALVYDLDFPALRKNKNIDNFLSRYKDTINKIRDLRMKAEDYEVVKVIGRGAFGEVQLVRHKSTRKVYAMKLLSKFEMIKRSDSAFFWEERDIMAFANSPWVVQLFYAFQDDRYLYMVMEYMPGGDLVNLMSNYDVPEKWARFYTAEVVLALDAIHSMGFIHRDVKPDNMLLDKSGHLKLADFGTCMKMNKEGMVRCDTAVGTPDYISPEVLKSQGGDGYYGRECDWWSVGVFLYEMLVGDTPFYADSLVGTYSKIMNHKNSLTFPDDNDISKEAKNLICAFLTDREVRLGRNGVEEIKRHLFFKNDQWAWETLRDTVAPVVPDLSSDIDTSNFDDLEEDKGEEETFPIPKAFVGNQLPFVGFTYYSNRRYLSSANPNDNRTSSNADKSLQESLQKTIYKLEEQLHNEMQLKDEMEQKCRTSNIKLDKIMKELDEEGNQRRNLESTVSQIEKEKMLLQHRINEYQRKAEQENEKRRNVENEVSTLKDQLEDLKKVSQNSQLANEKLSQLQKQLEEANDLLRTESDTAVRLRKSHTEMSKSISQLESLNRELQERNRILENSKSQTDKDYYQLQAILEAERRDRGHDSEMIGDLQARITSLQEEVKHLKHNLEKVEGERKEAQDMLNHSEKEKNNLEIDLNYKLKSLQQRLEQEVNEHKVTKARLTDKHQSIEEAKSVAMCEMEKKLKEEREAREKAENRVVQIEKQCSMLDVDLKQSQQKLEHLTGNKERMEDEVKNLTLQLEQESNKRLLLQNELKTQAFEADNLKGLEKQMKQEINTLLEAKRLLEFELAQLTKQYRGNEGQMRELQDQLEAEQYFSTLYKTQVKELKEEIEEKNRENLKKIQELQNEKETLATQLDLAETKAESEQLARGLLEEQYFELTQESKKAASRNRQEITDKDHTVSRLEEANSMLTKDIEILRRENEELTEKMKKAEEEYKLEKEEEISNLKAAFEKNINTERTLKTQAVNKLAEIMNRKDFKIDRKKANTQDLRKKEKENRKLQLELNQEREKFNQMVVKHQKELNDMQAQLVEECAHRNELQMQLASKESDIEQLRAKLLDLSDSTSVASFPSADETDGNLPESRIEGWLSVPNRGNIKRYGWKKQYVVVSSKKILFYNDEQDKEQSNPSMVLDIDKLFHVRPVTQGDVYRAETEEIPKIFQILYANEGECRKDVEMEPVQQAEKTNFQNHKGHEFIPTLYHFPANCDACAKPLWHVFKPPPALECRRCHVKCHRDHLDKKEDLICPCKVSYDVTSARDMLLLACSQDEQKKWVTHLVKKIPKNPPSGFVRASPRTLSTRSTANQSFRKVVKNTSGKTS
Chain of Mitogen-activated protein kinase kinase kinase 15 (Homo sapiens) (Q6ZN16 whole entry): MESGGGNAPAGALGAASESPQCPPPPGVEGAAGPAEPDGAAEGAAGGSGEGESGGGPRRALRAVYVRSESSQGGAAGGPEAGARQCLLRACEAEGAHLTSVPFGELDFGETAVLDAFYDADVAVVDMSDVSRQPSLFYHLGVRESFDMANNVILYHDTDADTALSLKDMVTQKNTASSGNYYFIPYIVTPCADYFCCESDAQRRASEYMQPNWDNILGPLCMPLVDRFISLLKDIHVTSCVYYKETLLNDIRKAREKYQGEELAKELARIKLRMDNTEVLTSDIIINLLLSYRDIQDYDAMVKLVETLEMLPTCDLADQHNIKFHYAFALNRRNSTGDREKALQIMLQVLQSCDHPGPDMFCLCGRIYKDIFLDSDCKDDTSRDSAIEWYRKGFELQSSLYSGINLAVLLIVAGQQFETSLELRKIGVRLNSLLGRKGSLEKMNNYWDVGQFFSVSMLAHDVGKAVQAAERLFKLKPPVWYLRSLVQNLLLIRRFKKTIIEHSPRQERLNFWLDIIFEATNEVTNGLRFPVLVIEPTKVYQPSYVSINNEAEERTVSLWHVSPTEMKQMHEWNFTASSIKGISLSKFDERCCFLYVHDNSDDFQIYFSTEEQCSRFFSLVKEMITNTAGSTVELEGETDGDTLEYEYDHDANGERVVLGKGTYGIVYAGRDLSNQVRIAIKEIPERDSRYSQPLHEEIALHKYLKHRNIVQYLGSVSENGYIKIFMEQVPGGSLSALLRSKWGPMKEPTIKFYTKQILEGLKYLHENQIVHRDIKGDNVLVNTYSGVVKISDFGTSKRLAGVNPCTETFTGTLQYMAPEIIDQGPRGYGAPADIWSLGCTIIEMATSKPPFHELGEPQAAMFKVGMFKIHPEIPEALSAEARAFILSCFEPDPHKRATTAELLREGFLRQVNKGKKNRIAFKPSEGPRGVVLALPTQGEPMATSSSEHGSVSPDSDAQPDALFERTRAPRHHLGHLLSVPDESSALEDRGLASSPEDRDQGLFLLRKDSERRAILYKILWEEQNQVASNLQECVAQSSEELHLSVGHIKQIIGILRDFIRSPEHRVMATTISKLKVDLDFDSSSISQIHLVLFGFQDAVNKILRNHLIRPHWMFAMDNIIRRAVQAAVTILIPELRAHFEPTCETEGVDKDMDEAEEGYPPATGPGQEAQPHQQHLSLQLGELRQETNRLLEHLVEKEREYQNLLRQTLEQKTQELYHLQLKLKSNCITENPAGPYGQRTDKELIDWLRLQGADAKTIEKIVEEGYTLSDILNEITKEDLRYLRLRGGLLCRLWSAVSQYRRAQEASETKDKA
Chain of Mitogen-activated protein kinase 7 (Homo sapiens) (Q13164 2-816 limits assumed): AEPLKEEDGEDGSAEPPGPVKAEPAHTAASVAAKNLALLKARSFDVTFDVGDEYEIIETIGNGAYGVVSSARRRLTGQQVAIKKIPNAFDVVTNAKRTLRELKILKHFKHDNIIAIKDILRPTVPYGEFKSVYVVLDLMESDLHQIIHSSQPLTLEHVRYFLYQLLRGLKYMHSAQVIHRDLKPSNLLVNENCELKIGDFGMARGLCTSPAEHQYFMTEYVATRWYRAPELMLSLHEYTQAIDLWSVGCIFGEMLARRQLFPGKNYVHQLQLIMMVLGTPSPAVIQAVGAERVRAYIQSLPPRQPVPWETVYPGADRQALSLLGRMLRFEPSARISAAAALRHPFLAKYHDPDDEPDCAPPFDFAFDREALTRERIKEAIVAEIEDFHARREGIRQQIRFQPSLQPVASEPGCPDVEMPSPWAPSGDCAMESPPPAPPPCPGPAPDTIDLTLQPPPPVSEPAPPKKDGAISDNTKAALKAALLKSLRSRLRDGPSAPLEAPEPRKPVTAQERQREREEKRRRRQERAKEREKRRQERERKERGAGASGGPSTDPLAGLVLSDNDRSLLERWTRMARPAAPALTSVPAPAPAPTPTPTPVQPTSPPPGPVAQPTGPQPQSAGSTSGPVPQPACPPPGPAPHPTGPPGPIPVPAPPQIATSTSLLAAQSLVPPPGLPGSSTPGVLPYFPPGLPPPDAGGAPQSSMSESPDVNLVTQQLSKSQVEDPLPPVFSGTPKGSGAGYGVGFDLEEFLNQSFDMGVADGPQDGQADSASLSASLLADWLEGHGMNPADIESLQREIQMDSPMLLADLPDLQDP
Chain of Cyclin-dependent kinase-like 1 (Homo sapiens) (Q00532 whole entry): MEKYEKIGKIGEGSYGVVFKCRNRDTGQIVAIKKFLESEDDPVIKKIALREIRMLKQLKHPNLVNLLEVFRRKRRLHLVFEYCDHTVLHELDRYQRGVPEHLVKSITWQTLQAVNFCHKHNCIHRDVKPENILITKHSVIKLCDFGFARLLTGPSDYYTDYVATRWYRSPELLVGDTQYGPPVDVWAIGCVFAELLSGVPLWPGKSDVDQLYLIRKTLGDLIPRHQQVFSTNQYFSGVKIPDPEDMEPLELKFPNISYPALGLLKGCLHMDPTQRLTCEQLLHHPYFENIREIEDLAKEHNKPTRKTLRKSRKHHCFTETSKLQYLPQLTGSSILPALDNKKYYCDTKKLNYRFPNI

Which residual binding, % of control [1] does the source give for CCN1CCN(Cc2ccc(NC(=O)c3ccc(C)c(C#Cc4cnc5[nH]ccc5c4)c3)cc2C(F)(F)F)CC1 here?
Its residual binding, % of control is 0%.

And the residual binding, % of control [2]?
The residual binding, % of control was 53%.

And the level, % of control [3]?
The level, % of control was 0.75%.

What about the residual binding, % of control [4] of the same compound?
The residual binding, % of control was 72%.

And the residual binding, % of control [5]?
The residual binding, % of control was 100%.

And the residual binding, % of control [6]?
Its residual binding, % of control is 7.2%.

And the % of control [7]?
Its % of control is 0.1%.

And the level, % of control [8]?
Its level, % of control is 0%.

And the inhibition [9]?
The inhibition was 0.3%.

What about the residual binding, % of control [10] of the same compound?
The residual binding, % of control was 46%.

What about the residual binding, % of control [11] of the same compound?
The residual binding, % of control was 28%.

What about the inhibition [12] of the same compound?
The inhibition was 100%.

What about the residual binding, % of control [13] of the same compound?
The residual binding, % of control was 2%.

And the inhibition [14]?
Its inhibition is 93%.

What about the inhibition [15] of the same compound?
The inhibition was 1.4%.

What about the inhibition [16] of the same compound?
Its inhibition is 2.2%.

And the residual binding, % of control [17]?
The residual binding, % of control was 89%.

What about the residual binding, % of control [18] of the same compound?
The residual binding, % of control was 4.8%.

What about the inhibition [19] of the same compound?
The inhibition was 76%.

What about the residual binding, % of control [20] of the same compound?
The residual binding, % of control was 0%.

What about the inhibition [21] of the same compound?
The inhibition was 48%.

What about the level, % of control [22] of the same compound?
The level, % of control was 0%.

And the % of control [23]?
The % of control was 5.7%.

And the residual binding, % of control [24]?
Its residual binding, % of control is 0.65%.

And the inhibition [25]?
The inhibition was 60%.

And the residual binding, % of control [26]?
Its residual binding, % of control is 0.9%.

What about the inhibition [27] of the same compound?
The inhibition was 8%.

What about the inhibition [28] of the same compound?
The inhibition was 3.6%.

What about the residual binding, % of control [29] of the same compound?
Its residual binding, % of control is 53%.

And the level, % of control [30]?
Its level, % of control is 36%.

And the level, % of control [31]?
Its level, % of control is 22%.

And the inhibition [32]?
Its inhibition is 59%.

And the inhibition [33]?
The inhibition was 67%.

What about the residual binding, % of control [34] of the same compound?
The residual binding, % of control was 90%.

What about the residual binding, % of control [35] of the same compound?
Its residual binding, % of control is 64%.

What about the residual binding, % of control [36] of the same compound?
Its residual binding, % of control is 1.6%.

And the inhibition [37]?
The inhibition was 0.6%.

And the residual binding, % of control [38]?
Its residual binding, % of control is 0.15%.

And the residual binding, % of control [39]?
Its residual binding, % of control is 2.5%.

And the inhibition [40]?
The inhibition was 100%.

What about the level, % of control [41] of the same compound?
Its level, % of control is 0.1%.

And the residual binding, % of control [42]?
Its residual binding, % of control is 100%.

What does the source list for CCN1CCN(Cc2ccc(NC(=O)c3ccc(C)c(C#Cc4cccnc4)c3)cc2C(F)(F)F)CC1?
residual binding, % of control [1]: 0%; residual binding, % of control [2]: 81%; level, % of control [3]: 1.8%; residual binding, % of control [4]: 78%; residual binding, % of control [5]: 100%; residual binding, % of control [6]: 18%; % of control [7]: 3.7%; level, % of control [8]: 0%; inhibition [9]: 0.1%; residual binding, % of control [10]: 8.4%; residual binding, % of control [11]: 62%; inhibition [12]: 100%; residual binding, % of control [13]: 6.4%; inhibition [14]: 89%; inhibition [15]: 1.3%; inhibition [16]: 36%; residual binding, % of control [17]: 88%; residual binding, % of control [18]: 1.4%; inhibition [19]: 68%; residual binding, % of control [20]: 0%; inhibition [21]: 85%; level, % of control [22]: 0%; % of control [23]: 2.7%; residual binding, % of control [24]: 2%; inhibition [25]: 43%; residual binding, % of control [26]: 2.6%; inhibition [27]: 48%; inhibition [28]: 2.8%; residual binding, % of control [29]: 58%; level, % of control [30]: 71%; level, % of control [31]: 29%; inhibition [32]: 73%; inhibition [33]: 88%; residual binding, % of control [34]: 99%; residual binding, % of control [35]: 49%; residual binding, % of control [36]: 1.8%; inhibition [37]: 0%; residual binding, % of control [38]: 0.1%; residual binding, % of control [39]: 4.5%; inhibition [40]: 100%; level, % of control [41]: 0.05%; residual binding, % of control [42]: 85%
